Where two headings read alike, the source gives them in different places.
Key:
Format in all cases: cell-based
[1] = test system: SH-SY5Y (human neuroblastoma) cells; experiment: Cell viability, Cell Titer Glo 2.0 assay; settings: read-out: Viability SHSY5Y.3 GI50
How it was run: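 Following a 72 h incubation (37 °C, 5% CO2, 0.1% DMSO final), compound toxicity toward SH-SY5Y cells was quantified by CellTiter-Glo 2.0.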

HTT mRNA [2] = experiment: Splicing RT-qPCR assay (THP), Table 2A
HTT mRNA [3] = experiment: Gene panel canonical junction qPCR assay, decrease in CJ mRNA, Table 3
How it was run: (§1)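 Eleven-point dose responses from 10 uM final, 24 h, DMSO ≤0.25%, in A673 or K562 cells. Relative quantification by 2^(−ΔΔCt) against housekeeper and vehicle was converted to percent response over fixed ΔCt windows and fitted to yield IC50.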

MYB mRNA [4] = experiment: as above
How it was run: as §1

MYB mRNA [5] = experiment: Splicing RT-qPCR assay (THP), Table 2A
[6] = Table 2A (THP), AJ mRNA increase, read-out: HTT AJ (increase in alternative junction mRNA, AC50)
[7] = Table 2A (THP), CJ mRNA decrease, read-out: HTT CJ (decrease in canonical junction mRNA, IC50)
[8] = decrease in canonical junction (CJ) mRNA, gene panel qPCR, Table 3
[9] = Table 2A (THP), AJ mRNA increase, read-out: MYB AJ (increase in alternative junction mRNA, AC50)
[10] = Table 2A (THP), CJ mRNA decrease, read-out: MYB CJ (decrease in canonical junction mRNA, IC50)
[11] = Table 2A, THP, HTT alternative junction (AJ) mRNA, read-out: HTT AJ (AC50, increase in alternative junction mRNA)
[12] = Table 2A, THP, HTT canonical junction (CJ) mRNA, read-out: HTT CJ (IC50, decrease in canonical junction mRNA)
[13] = decrease in CJ mRNA levels, canonical junction qPCR, gene panel
[14] = Table 2A, THP, MYB alternative junction (AJ) mRNA, read-out: MYB AJ (AC50, increase in alternative junction mRNA)
[15] = Table 2A, THP, MYB canonical junction (CJ) mRNA, read-out: MYB CJ (IC50, decrease in canonical junction mRNA)

GI50 [1] [nM] | IC50 (HTT mRNA [2]; [7]) [nM] | IC50 (HTT mRNA [3]; [8]) [nM] | IC50 (MYB mRNA [4]; [8]) [nM] | IC50 (MYB mRNA [5]; [10]) [nM] | IC50 (HTT mRNA [2]; [12]) [nM] | IC50 (HTT mRNA [3]; [13]) [nM] | IC50 (MYB mRNA [4]; [13]) [nM] | IC50 (MYB mRNA [5]; [15]) [nM] | SMILES | AC50 (HTT mRNA [2]; [6]) [nM] | AC50 (MYB mRNA [5]; [9]) [nM] | AC50 (HTT mRNA [2]; [11]) [nM] | AC50 (MYB mRNA [5]; [14]) [nM]
> 10000 | > 10000 | > 10000 | > 10000 | > 10000 | – | – | – | – | CCNC1CCN(c2cc(OC)c(C(=O)Nc3cn4cc(C)nc(C)c4n3)c3nn(C)cc23)CC1 [Compound 333, N-(6,8-dimethylimidazo[1,2-a]pyrazin-2-yl)-4-[4-(ethylamino)-1-piperidyl]-6-methoxy-2-methyl-indazole-7-carboxamide] | > 10000 | > 10000 | – | –
> 10000 | – | – | – | – | > 10000 | > 10000 | > 10000 | > 10000 | C[C@H]1CN(c2ccc(C(=O)Nc3cc(F)c4nn(C)cc4c3)c3sc(OCC4CCNC4)nc23)C[C@H](C)N1 (stereo partly drawn) [Compound 797, 4-((3S,5S)-3,5-dimethylpiperazin-1-yl)-N-(7-fluoro-2-methyl-2H-indazol-5-yl)-2-(pyrrolidin-3-ylmethoxy)benzo[d]thiazole-7-carboxamide bis(2,2,2-trifluoroacetate)] | – | – | > 10000 | > 10000
1000 to 10000 | > 10000 | > 10000 | 100 to 1000 | 100 to 1000 | – | – | – | – | CCNC1CCN(c2ccc(C(=O)Nc3cc(CO)c4nc(C)cn4c3)c3nn(C)cc23)CC1 [Compound 329, 4-[4-(ethylamino)-1-piperidyl]-N-[8-(hydroxymethyl)-2-methyl-imidazo[1,2-a]pyridin-6-yl]-2-methyl-indazole-7-carboxamide] | 1000 to 10000 | 100 to 1000 | – | –
> 10000 | > 10000 | > 10000 | > 10000 | > 10000 | – | – | – | – | Cc1cn2cc(NC(=O)c3ccc(N4CCC(NC5CC5)CC4)c4cn(C)nc34)nc2c(-c2cnn[nH]2)n1 [Compound 579, 4-(4-(cyclopropylamino)piper-idin-1-yl)-2-methyl-N-(6-methyl-8-(1H-1,2,3-triazol-5-yl)-imidazo[1,2-a]pyrazin-2-yl)-2H-indazole-7-carbox-amide 2,2,2-trifluoroacetate] | > 10000 | > 10000 | – | –
< 100 | – | – | – | – | < 100 | < 100 | < 100 | < 100 | COc1nc2c(C(=O)Nc3cc(F)c4nn(C)cc4c3)ccc(N3CCN[C@@H](C)C3)c2s1 [Compound 766] | – | – | < 100 | < 100
100 to 1000 | – | – | – | – | 100 to 1000 | 100 to 1000 | 100 to 1000 | 100 to 1000 | Cc1cn2nc(NC(=O)c3c(F)cc(N4CCC(NC5CC5)CC4)c4nc(C)sc34)cc(C)c2n1 [Compound 665, 4-[4-(cyclopropyl-amino)-1-piperidyl]-N-(2,8-dimethylimidazo[1,2-b]-pyridazin-6-yl)-6-fluoro-2-methyl-1,3-benzothiazole-7-carboxamide] | – | – | 100 to 1000 | 100 to 1000
> 10000 | > 10000 | > 10000 | 1000 to 10000 | 1000 to 10000 | – | – | – | – | Cc1cn2cc(NC(=O)c3ccc(N4C[C@H](C)N[C@@H](C)C4)c4cn(C)nc34)nc2c(C)n1 [Compound 549] | > 10000 | 1000 to 10000 | – | –
> 10000 | – | – | – | – | > 10000 | > 10000 | 1000 to 10000 | 1000 to 10000 | Cn1cc2cc(NC(=O)c3ccc(N4CCC(NC5CC5)CC4)c4cn(C)nc34)cc(CN)c2n1 [Compound 813, N-[7-(aminomethyl)-2-methyl-indazol-5-yl]-4-[4-(cyclopropylamino)-1-piperidyl]-2-methyl-indazole-7-carboxamide] | – | – | > 10000 | 1000 to 10000
1000 to 10000 | – | – | – | – | 1000 to 10000 | 1000 to 10000 | 1000 to 10000 | 1000 to 10000 | COc1c(NC(=O)c2ccc(N3CCC(NC4CC4)CC3)c3cc(C)nn23)cn2cc(C)nc(C)c12 [Compound 630, 4-[4-(cyclopropylamino)-1-piperidyl]-N-(8-methoxy-1,3-dimethyl-pyrrolo[1,2-a]pyrazin-7-yl)-2-methyl-pyrazolo[1,5-a]pyridine-7-carboxamide] | – | – | 1000 to 10000 | 1000 to 10000
> 10000 | – | – | – | – | 1000 to 10000 | 1000 to 10000 | 1000 to 10000 | 1000 to 10000 | Cc1cn2cc(NC(=O)c3ccc(NC(=O)C4CCNC4)c4[nH]cnc34)cc(F)c2n1 (stereo not shown) [Compound 614, N-(8-fluoro-2-methyl-imidazo[1,2-a]pyridin-6-yl)-7-(pyrrolidine-3-carbonylamino)-1H-benzimidazole-4-carboxamide] | – | – | > 10000 | 1000 to 10000
1000 to 10000 | 1000 to 10000 | 1000 to 10000 | 1000 to 10000 | 1000 to 10000 | – | – | – | – | COc1cc2nn(C)cc2cc1NC(=O)c1c(NCCO)cc(N2CCC(NC3CC3)CC2)c2cn(C)nc12 [Compound 441, 4-[4-(cyclopropylamino)-1-piperidyl]-6-(2-hydroxyethylamino)-N-(6-methoxy-2-methyl-indazol-5-yl)-2-methyl-indazole-7-carboxamide] | 1000 to 10000 | 1000 to 10000 | – | –
1000 to 10000 | > 10000 | > 10000 | 100 to 1000 | 100 to 1000 | – | – | – | – | Cc1cn2cc(NC(=O)c3ccc(N4CCC(NC5CC5)CC4)c4cn(C)nc34)nc2c(Cl)n1 [Compound 479, N-(8-chloro-6-methyl-imidazo[1,2-a]-pyrazin-2-yl)-4-[4-(cyclopropylamino)-1-piperidyl]-2-methyl-indazole-7-carboxamide] | > 10000 | 100 to 1000 | – | –
1000 to 10000 | 1000 to 10000 | 1000 to 10000 | 1000 to 10000 | 1000 to 10000 | – | – | – | – | CCNC1CCN(c2ccc(C(=O)Nc3cn4cc(C)nc(CC)c4n3)c3nn(C)cc23)CC1 [Compound 358, 4-[4-(ethylamino)-1-piperidy1]-N-(8-ethyl-6-methyl-imidazo[1,2-a]-pyrazin-2-yl)-2-methyl-indazole-7-carboxamide] | 1000 to 10000 | 100 to 1000 | – | –
100 to 1000 | 1000 to 10000 | 1000 to 10000 | < 100 | < 100 | – | – | – | – | COc1cc2nn(C)cc2cc1NC(=O)c1c(O)cc(N2CCC(NC3CC3)CC2)c2cn(C)nc12 [Compound 463, 4-[4-(cyclopropylamino)-1-piperidyl]-6-hydroxy-N-(6-methoxy-2-methyl-indazol-5-yl)-2-methyl-indazole-7-carboxamide] | 1000 to 10000 | < 100 | – | –
< 100 | – | – | – | – | 1000 to 10000 | 1000 to 10000 | < 100 | < 100 | COc1nc2c(C(=O)Nc3cc(C)c4nn(C)cc4c3)ccc(N3C[C@H](C)N[C@@H](C)C3)c2s1 [Compound 718, N-(2,7-dimethylindazol-5-yl)-7-[(3S,5S)-3,5-dimethylpiperazin-1-yl]-2-methoxy-1,3-benzothiazole-4-carboxamide] | – | – | 1000 to 10000 | < 100
> 10000 | > 10000 | > 10000 | > 10000 | > 10000 | – | – | – | – | COc1cc2n[nH]cc2cc1NC(=O)c1c(F)cc(N2CCC(NC3CC3)CC2)c2cn(C)nc12 [Compound 449, 4-[4-(cyclopropylamino)-1-piperidyl]-6-fluoro-N-(6-methoxy-2H-indazol-5-yl)-2-methyl-indazole-7-carboxamide] | > 10000 | > 10000 | – | –
